Data reported in BindingDB's records for doi:10.1016/s0960-894x(00)00030-5 (Yoshitomi Pharmaceutical Industries, 2000).

Molecular target: D(2) dopamine receptor (Homo sapiens, UniProt P14416)
Assay: ChEBML_61120
Description: Binding affinity for Dopamine receptor D2 by displacement of [3H]-spiperone

Sequence of D(2) dopamine receptor (P14416 whole entry): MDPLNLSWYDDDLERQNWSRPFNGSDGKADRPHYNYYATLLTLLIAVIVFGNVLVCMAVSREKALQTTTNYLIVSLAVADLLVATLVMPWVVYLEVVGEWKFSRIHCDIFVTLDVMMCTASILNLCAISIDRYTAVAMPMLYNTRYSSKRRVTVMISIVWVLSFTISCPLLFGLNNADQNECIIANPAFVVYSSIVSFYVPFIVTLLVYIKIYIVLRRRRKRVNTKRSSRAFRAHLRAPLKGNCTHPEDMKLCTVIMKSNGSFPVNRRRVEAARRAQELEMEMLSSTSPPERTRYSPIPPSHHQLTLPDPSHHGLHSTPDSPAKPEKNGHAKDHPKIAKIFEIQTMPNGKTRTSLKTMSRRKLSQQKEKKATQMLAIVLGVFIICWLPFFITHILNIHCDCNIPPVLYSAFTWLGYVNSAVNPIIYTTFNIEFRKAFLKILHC

Row | Ki [nM] | SMILES
1 | 57 | CN1CCOc2c(C(=O)NC[C@H]3CCCN3CCc3ccccc3)cc(Cl)cc21 [6-Chloro-4-methyl-3,4-dihydro-2H-benzo[1,4]oxazine-8-carboxylic acid ((R)-1-phenethyl-pyrrolidin-2-ylmethyl)-amide]
2 | 800 | CN1CCOc2c(C(=O)NC[C@@H]3CCCN3CCc3ccccc3)cc(Cl)cc21 [6-Chloro-4-methyl-3,4-dihydro-2H-benzo[1,4]oxazine-8-carboxylic acid ((S)-1-phenethyl-pyrrolidin-2-ylmethyl)-amide]
